For orientation: IC50 means the concentration needed to halve the response being measured.

SMILES strings stand for the structures. Numbered stars: 1 amine (or outer) side, 2 acyl side, 3 side chain; on linkers, the order of the positions; unused ones are H or OH. Square brackets hold non-standard residues; d marks the D form. Peptide text beside a SMILES is read from it. * marks the point of attachment. X3 = COc1cc(CC(=O)[*:2])ccc1N[*:1]; X2 = O=C(Cc1ccc(N[*:1])cc1)[*:2]; NH(2-Me-phenyl) = Cc1ccccc1N*; NHcHex = C1CCC(N*)CC1; CO = O=C([*:1])[*:2]; NHPh = c1ccc(N*)cc1 A value given as a limit tells only on which side of the number the result lay.

The target in the assay is T1, VLA4 (Homo sapiens, UniProt P05556+P13612).
T1 construct: endogenous in cells; host or cells: Ramos cells
T1 sequence (P13612 34-1032): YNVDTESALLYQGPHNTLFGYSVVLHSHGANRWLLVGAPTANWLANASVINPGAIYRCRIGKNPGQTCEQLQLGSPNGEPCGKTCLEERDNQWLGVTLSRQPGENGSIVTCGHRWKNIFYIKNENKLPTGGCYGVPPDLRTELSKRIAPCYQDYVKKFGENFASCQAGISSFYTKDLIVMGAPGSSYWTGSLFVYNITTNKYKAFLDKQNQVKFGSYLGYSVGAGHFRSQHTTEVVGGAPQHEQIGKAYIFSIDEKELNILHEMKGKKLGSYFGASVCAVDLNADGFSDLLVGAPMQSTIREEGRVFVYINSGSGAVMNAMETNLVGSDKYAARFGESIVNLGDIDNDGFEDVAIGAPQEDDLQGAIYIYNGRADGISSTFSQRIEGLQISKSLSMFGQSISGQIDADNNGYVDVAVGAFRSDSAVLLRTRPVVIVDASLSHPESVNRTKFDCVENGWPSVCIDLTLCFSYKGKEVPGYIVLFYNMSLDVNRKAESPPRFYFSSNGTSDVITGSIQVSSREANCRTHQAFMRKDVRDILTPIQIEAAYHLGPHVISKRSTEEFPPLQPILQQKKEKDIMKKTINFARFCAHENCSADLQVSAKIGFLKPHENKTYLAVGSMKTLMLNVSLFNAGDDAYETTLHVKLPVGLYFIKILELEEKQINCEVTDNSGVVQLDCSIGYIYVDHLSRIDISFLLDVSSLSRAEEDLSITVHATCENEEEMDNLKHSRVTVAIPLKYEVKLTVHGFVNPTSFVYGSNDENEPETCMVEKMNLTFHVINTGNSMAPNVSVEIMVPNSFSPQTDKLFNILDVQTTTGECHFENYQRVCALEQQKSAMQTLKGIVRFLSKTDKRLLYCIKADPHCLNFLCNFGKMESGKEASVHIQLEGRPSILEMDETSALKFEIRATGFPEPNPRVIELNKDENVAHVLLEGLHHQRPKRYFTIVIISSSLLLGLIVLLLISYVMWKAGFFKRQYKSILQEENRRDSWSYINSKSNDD
T1 sequence (P05556 21-798): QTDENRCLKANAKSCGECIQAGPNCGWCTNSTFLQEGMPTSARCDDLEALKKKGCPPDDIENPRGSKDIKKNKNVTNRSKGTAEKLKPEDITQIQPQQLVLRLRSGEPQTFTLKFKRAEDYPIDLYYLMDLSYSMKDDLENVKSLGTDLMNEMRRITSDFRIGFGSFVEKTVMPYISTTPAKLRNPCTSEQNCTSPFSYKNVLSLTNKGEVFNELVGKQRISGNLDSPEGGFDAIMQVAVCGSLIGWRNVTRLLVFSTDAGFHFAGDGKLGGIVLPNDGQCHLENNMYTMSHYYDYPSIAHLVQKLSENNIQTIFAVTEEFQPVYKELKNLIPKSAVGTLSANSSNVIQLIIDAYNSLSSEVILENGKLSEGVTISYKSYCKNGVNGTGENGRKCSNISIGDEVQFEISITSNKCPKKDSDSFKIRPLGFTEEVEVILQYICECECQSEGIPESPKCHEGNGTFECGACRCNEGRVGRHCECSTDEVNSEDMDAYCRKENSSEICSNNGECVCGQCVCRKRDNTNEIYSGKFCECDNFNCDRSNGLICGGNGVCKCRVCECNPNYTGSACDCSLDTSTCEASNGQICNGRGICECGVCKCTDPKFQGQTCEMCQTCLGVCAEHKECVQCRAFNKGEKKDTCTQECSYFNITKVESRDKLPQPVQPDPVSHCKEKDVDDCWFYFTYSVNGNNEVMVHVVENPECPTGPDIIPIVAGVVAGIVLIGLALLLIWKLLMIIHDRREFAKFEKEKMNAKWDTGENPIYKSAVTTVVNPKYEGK
Briefly: Inhibition of VLA4-dependent adhesion of Ramos cells to BSA-CS1. The class given is cell-based. Conditions: Ramos cells, BSA-CS1 coated wells, 2 mM MnCl2, 30 minutes at room temperature; read-out: IC50. The text has this: For example, the cell adhesion inhibitory activity of these compounds may be measured by determining the concentration of inhibitor required to block the binding of VLA-4-expressing cells to fibronectin- or CS1-coated plates. In this assay microtiter wells are coated with either fibronectin (containing the CS1-sequence) or CS-1. If CS-1 is used, it must be conjugated to a carrier protein, such as bovine serum albumin, in order to bind to the wells. Once the wells are coated, varying concentrations of the test compound are then added together with appropriately labelled, VLA-4-expressing cells. Alternatively, the test compound may be added first and allowed to incubate with the coated wells prior to the addition of the cells. The cells are allowed to incubate in the wells for at least 30 minutes. Following incubation, the wells are emptied and washed. Inhibition of binding is measured by quantitating the fluorescence or radioactivity bound to the plate for each of the various concentrations of test compound, as well as for controls containing no test compound.
VLA-4-expressing cells that may be utilized in this assay include Ramos cells, Jurkat cells, A375 melanoma cells, as well as human peripheral blood lymophocytes (PBLs). The cells used in this assay may be fluorescently or radioactively labelled.
This assay was used to assess the potency of VLA4-directed inhibitory compounds of this invention. 1.
We dissolved BSA-SMCC (Pierce Chemical, Rockford, Ill.; Catalog #77115) in H2O at a concentration of 10 mg/mL. [SEQ ID NO:4]: […](“Cys-Tyr-CS1 peptide”), which we synthesized by conventional solid phase chemistry and purified by HPLC, was dissolved in 10 mM HEPES pH 5, 50 mM NaCl and 0.1 mM EDTA also at a concentration of 10 mg/mL. We then mixed 500 μL of BSA-SMCC, 250 μL of Cys-Tyr-CS1 peptide and 75 μL of 1 mM HEPES pH 7.5 and allowed the conjugation reaction to proceed for 30 minutes. We stopped the reaction by adding 1 μL of beta-mercaptoethanol. Samples were analyzed for cross-linking by SDS-PAGE.
We coated the wells of a Linbro titertek polystyrene 96-well flat bottom plate (Flow Laboratories, Maclean, Va.; catalog #76-231-05) with 100 μL of the above-described BSA-CS1 solution diluted to 1 μg/mL in 0.05 M NaHCO3 (15 mM NaHCO3, 35 mM Na2CO3) pH 9.2. Some wells were not coated with CS1 in order to assess non-specific cell binding (NSB). The plate was then incubated overnight at 4° C.
Following this incubation, the contents of the wells were removed by inverting and blotting the plate. All of the wells were then blocked with 100 μL of 1% BSA in PBS, 0.02% NaN3, for a minimum of one hour at room temperature.
Ramos cells are grown, maintained and labelled in RPMI 1640 culture medium containing 1% BSA. Just prior to running the assay, we added 2′, 7′-bis-(2-carboxyethyl)-5(and -6)carboxyfluorescein acetoxymethyl ester (“BCECF-AM”; Molecular Probes Inc., Eugene, Oregon; catalog #B-1150) to a final concentration of 2 μM to a culture of Ramos cells (4×10^6 cells/mL). We incubated the cells for 20 minutes at 37° C.
Following labelling, the cells were washed twice in assay buffer (24 mM TRIS, 137 mM NaCl, 2.7 mM KCl, pH 7.4, containing 0.1 BSA and 2mM glucose) to remove any cations originating from the culture medium. The cells were then resuspended in assay buffer to 4×10^6 cells/mL and 2 mM MnCl2 was added to upregulate VLA4 on the surface of the cells.
Immediately prior to running the assay, we removed the BSA blocking solution from the 96-well plates and washed the wells with 100 μL of assay buffer. We then added to each well 25 μL of test cell adhesion inhibitory compound at 2×the final concentration and 25 μL of the labelled Ramos cells. […] Each concentration of compound was tested in triplicate. The compound and cells are allowed to incubate for 30 minutes at room temperature.
For the compound `CC(C)[C@H](NC(=O)[C@H](CC(=O)O)NC(=O)C1Cc2ccccc2CN1)C(=O)O` (some centres unmarked) [Compound 71] (HELM PEPTIDE1{[O=C(C1Cc2ccccc2CN1)[*:2]].D.V}$$$$V2.0), the IC50 is over 10 µM.

For `CC(C)C[C@H](NC(=O)c1ccc2ccccc2n1)C(=O)N[C@@H](CC(=O)O)C(=O)N[C@H](C(=O)Nc1ccc(F)cc1)C(C)C` [Compound 123], the IC50 was over 10 µM.

For the compound `CC(C)C[C@H](NC(=O)C(Cc1ccc(O)cc1)N(S(C)(=O)=O)S(C)(=O)=O)C(=O)N[C@@H](CC(=O)O)C(=O)N[C@H](C(=O)O)C(C)C` (some centres unmarked) [Compound 65], the IC50 is over 10 µM.

On to `CC(C)CNC(=O)[C@H](CC(=O)O)NC(=O)[C@@H]1CCCN1C(=O)CCc1ccc(O)cc1` [Compound 331], for which the IC50 was over 10 µM.

Turning to `COC(=O)[C@@H](NC(=O)[C@H](CC(=O)O)NC(=O)[C@H](CC(C)C)N(C)C(=O)Cc1ccc(O)cc1)C(C)C` [Compound 141], the IC50 is over 10 µM.

With `CC(C)CCNC(=O)[C@H](CC(=O)O)NC(=O)[C@H](CC(C)C)NC(=O)C1CCc2ccccc2N1` (some centres unmarked) [Compound 110], the IC50 is over 10 µM.

As for `CC(C)C[C@H](NC(=O)C1CCCO1)C(=O)N[C@@H](CC(=O)O)C(=O)N[C@H](C(=O)O)C(C)C` (some centres unmarked) [Compound 80], the IC50 was over 10 µM.

As for `CNC(=O)[C@@H](NC(=O)[C@H](CC(=O)O)NC(=O)[C@H](CC(C)C)N(C)C(=O)Cc1ccc(OC)cc1)C(C)C` [Compound 45], the IC50 was over 10 µM.

On to `C=CCC(CCc1ccccc1)C(=O)N[C@H](C(=O)N1CCC[C@H]1C(=O)O)C(C)C` (some centres unmarked) [Compound 151], for which the IC50 was over 10 µM.

Consider `CCC(C)C(NC(=O)CCc1ccc(O)cc1)C(=O)NC(CC(=O)O)C(=O)NCC(C)C` (centres unmarked) [Compound 17], for which the IC50 is over 10 µM.

Take `CSCC[C@H](NC(=O)[C@H](CC(=O)O)NC(=O)[C@H](CCC(N)=O)NC(=O)Cc1ccc(NC(=O)Nc2ccccc2C)cc1)C(N)=O` [Compound 303]: the IC50 was under 0.05 µM.

On to `CC(C)CC(NC(=O)Cc1ccc(NC(=O)Nc2ccccc2)cc1)C(=O)NC(CC(=O)O)C(=O)NC(C(=O)N1CCCC1C(N)=O)C(C)C` (centres unmarked) [Compound 211] ({NHPh-CO}-[X2]LDVP-NH2; configuration not given here), for which the IC50 lay within 0.05 to 10 µM.

As to `CC(C)[C@H](NC(=O)[C@H](CC(=O)O)NC(=O)CCCCc1ccccc1)C(=O)N1CCC[C@H]1C(=O)O` [Compound 150], the IC50 was over 10 µM.

Take `COc1cc(CC(=O)N[C@@H](CCSC)C(=O)N[C@@H](CC(=O)O)C(=O)N[C@H](C(=O)N2CCC[C@H]2C(=O)O)C(C)C)ccc1NC(=O)Nc1ccccc1` [Compound 2] ({NHPh-CO}-[X3]MDVP-OH): the IC50 is under 0.05 µM.

With `CNC(=O)[C@@H](NC(=O)[C@H](CC(=O)O)NC(=O)[C@H](CC(C)C)NC(=O)Cc1ccccc1)C(C)C` [Compound 181] (HELM PEPTIDE1{[O=C(Cc1ccccc1)[*:2]].L.D.V.[CN[*:1]]}$$$$V2.0), the IC50 is over 10 µM.

For `COc1cc(CC(=O)N[C@@H](CC(C)C)C(=O)N[C@@H](CC(=O)O)C(=O)N[C@H](C(=O)N2CCC[C@H]2C(=O)O)C(C)C)ccc1NC(=O)Nc1ccccc1` [Compound 1] ({NHPh-CO}-[X3]LDVP-OH), the IC50 is under 0.05 µM.

As to `CC(C)C[C@H](NC(=O)CCc1ccc(O)cc1)C(=O)N[C@@H](CC(=O)O)C(=O)N[C@H](C(=O)N1CCC[C@H]1C(=O)O)C(C)C` [Compound 38], the IC50 is over 10 µM.

In the case of `CC(C)C[C@H](NC(=O)c1ccc2ccccc2n1)C(=O)N[C@@H](CC(=O)O)C(=O)N[C@H](C(=O)Nc1ccccc1)C(C)C` [Compound 125], the IC50 was over 10 µM.

Take `CC[C@H](C)[C@H](NC(=O)Cc1ccc(NC(=O)Nc2ccccc2C)cc1)C(=O)N[C@@H](CC(=O)O)C(=O)N[C@@H](CCC(=O)O)C(N)=O` [Compound 290]: the IC50 was under 0.05 µM.

Regarding `CSCC[C@H](NC(=O)[C@H](CC(=O)O)NC(=O)[C@H](CCSC)NC(=O)Cc1ccc(NC(=O)Nc2ccccc2C)cc1)C(N)=O` [Compound 225], the IC50 was under 0.05 µM.

Take `CC(C)[C@H](NC(=O)[C@H](CC(=O)O)NC(=O)[C@H](C)NC(=O)c1cc2ccccc2cn1)C(=O)O` [Compound 97]: the IC50 was over 10 µM.

Regarding `CC(C)C[C@H](NC(=O)Cc1ccccc1)C(=O)N[C@@H](CC(=O)O)C(=O)N1CCC[C@H]1C(=O)NC(C(=O)O)C(=O)O` [Compound 138], the IC50 was over 10 µM.

For the compound `COC(=O)[C@@H]1CCCN1C(=O)[C@@H](NC(=O)[C@H](CC(=O)O)NC(=O)[C@H](CC(C)C)NC(=O)CCc1ccccc1)C(C)C` [Compound 37], the IC50 was over 10 µM.

Turning to `CC(C)C[C@H](NC(=O)Cc1ccc(NC(=O)Nc2ccccc2)cc1)C(=O)N[C@@H](CC(=O)O)C(=O)N[C@H](C(=O)N1CCC[C@H]1C(=O)NC1CCCCC1)C(C)C` [Compound 324] ({NHPh-CO}-[X2]LDVP-NHcHex), the IC50 fell in the range of 0.05 to 10 µM.

On to `CC(C)C[C@H](NC(=O)Cc1ccc(NC(=O)Nc2ccccc2)cc1)C(=O)N[C@@H](CC(=O)O)C(=O)N[C@H](C(=O)NCc1ccccc1)C(C)C` [Compound 321], for which the IC50 was 0.05 to 10 µM.

Consider `CC(C)CNC(=O)[C@H](CC(=O)O)NC(=O)[C@H](CC(C)C)NC(=O)CNC(=O)c1ccccc1` [Compound 163], for which the IC50 was over 10 µM.

As to `COC(=O)[C@@H](NC(=O)[C@H](CC(=O)O)NC(=O)CNC(=O)c1ccccc1)C(C)C` [Compound 172] (HELM PEPTIDE1{[O=C(c1ccccc1)[*:2]].G.D.V.[CO[*:1]]}$$$$V2.0), the IC50 is over 10 µM.

On to `CNC(=O)[C@@H](NC(=O)[C@H](CC(=O)O)NC(=O)[C@H](CC(C)C)N(C)C(=O)c1ccccn1)C(C)C` [Compound 126], for which the IC50 is over 10 µM.

For the compound `CC(C)C[C@H](NC(=O)Cc1ccc(NC(=O)Nc2ccccc2)cc1)C(=O)N[C@@H](CC(=O)O)C(=O)NC(C)C` [Compound 215], the IC50 is 0.05 to 10 µM.

As to `CC(C)C[C@H](NC(=O)c1cc2ccccc2cn1)C(=O)N[C@@H](CC(=O)O)C(=O)N[C@@H](Cc1ccccc1)C(=O)O` [Compound 93], the IC50 is over 10 µM.

On to `CNC(=O)[C@@H](NC(=O)[C@H](CC(=O)O)NC(=O)C1(NC(=O)Cc2ccccc2)CCc2ccccc2C1)C(C)C` (some centres unmarked) [Compound 134], for which the IC50 is over 10 µM.

Consider `CSCC[C@H](NC(=O)Cc1ccc(NC(=O)Nc2ccccc2C)cc1)C(=O)N[C@@H](CC(=O)O)C(=O)N[C@H](C(=O)N1CCC[C@H]1C(=O)O)C(C)C` [Compound 315] ({NH(2-Me-phenyl)-CO}-[X2]MDVP-OH), for which the IC50 is under 0.05 µM.

Regarding `CNC(=O)[C@@H](NC(=O)[C@H](CC(=O)O)NC(=O)[C@H](CC(C)C)N(C)C(=O)c1ccc(OC)cc1)C(C)C` [Compound 128], the IC50 is over 10 µM.

Turning to `COC(=O)[C@@H]1CCCN1C(=O)[C@@H](NC(=O)[C@H](CC(=O)O)NC(=O)[C@H](CC(C)C)NC(=O)Cc1ccccc1)C(C)C` [Compound 35], the IC50 was 0.05 to 10 µM.

On to `CC(C)C[C@H](NC(=O)c1cc2ccccc2cn1)C(=O)N[C@@H](CC(=O)O)C(=O)N[C@H](C(=O)O)C(C)C` [Compound 69], for which the IC50 was over 10 µM.

On to `CC(C)C[C@H](NC(=O)c1cc2ccccc2cn1)C(=O)N[C@@H](CO)C(=O)N[C@H](C(=O)O)C(C)C` [Compound 7], for which the IC50 was over 10 µM.

As to `COC(=O)[C@@H](NC(=O)[C@H](CC(=O)O)NC(=O)[C@H](CC(C)C)N(Cc1ccccc1)C(C)=O)C(C)C` [Compound 28], the IC50 is over 10 µM.

For `COc1ccc(CNC(=O)[C@@H](NC(=O)[C@H](CC(=O)O)NC(=O)[C@H](CC(C)C)NC(=O)c2ccc3ccccc3n2)[C@@H](C)O)cc1` [Compound 197], the IC50 is 0.05 to 10 µM.

These data come from patent publication US6596687B1, “Cell adhesion inhibitors” (Biogen, Inc., priority 1995, dated 2003).
